These are literature values, as cited in patent publication US20120301532A1, “COMPOSITIONS AND METHODS FOR TREATING MATERIALS WITH INSECTICIDES AND POTENTIATING AGENTS” (ALLERGY TECHNOLOGIES, LLC, priority 2011, published 2012).

Molecules are shown by their SMILES.

The data set has as its system bed bugs. Conditions: bed bug attractants, background statement.

In the case of `O=C=O` [CO2], the effective attractant range is recorded as ≥ 86 centimeters.
